System: Eimeria tenella
Assay: Anticoccidial activity in chicken inoculated with Eimeria tenella oocysts
Assay type: in vivo
Conditions: for Rate (%) of relative body weight gain / Survival rate (%): 7 days after infection; for Lesion scores: cecum, 7th day after infection; for ACI (Anticoccidial Index): ACI=(relative weight gain+survival rate)-(lesion scores+oocyst scores)
Method: The activity of MI215-NF3 substance for controlling chicken coccidiosis was tested as summarized below.
1. Newly-hatched chicken (male) were preliminarily raised for 1 week, and […] chicken were used in the test.
2. The body weights of the chicken were individually measured at the beginning of the test. To make up each test group, ten chicken were selected and alloted in each group so as to minimize variations among the test groups.
3. Chicken were orally inoculated with 5×10^4 oocysts of Eimeria tenella per chick through a stomach probe tube.
4. After the oocyst inoculation, each chick was allowed to take ad libitum a feed which had been prepared by mixing a predetermined amount of MI215-NF3 substance (sodium salt) with a special feed containing no anticoccidial agent. Incidentally, the chicken were also allowed to drink water ad libitum.
5. Up to the 7th day after the oocyst inoculation, the number of oocysts in feces from each chick and the state of the feces were observed everyday.
6. Each chick was anatomized on the 7th day after the infection. Anatomical procedures were as follows.
1) The body weight of each chick was measured.
2) Each chick was sacrificed by dislocation of neck cervical fracture.
3) Each chick was subjected to celiotomy and the cecum was enucleated. The cecum was visually inspected for any lesions on both outer and inner walls of cecum.
4) The cecum thus inspected was individually disintegrated in a homogenizer, whereby a cecum suspension was prepared. The number of oocysts in the suspension was counted.
5) Based on the results of the above inspections, the value of ACI (Anticoccidial Index) was determined in accordance with the evaluation method proposed by Merck & Co., Inc., U.S.A., namely, by the following equation:
ACI=(rate (%) of relative body weight gain+survival rate (%) of
chick)-(lesion scores+oocyst scores)
Upon determination of the above ACI value, the "rate of weight gain" of the chicken in each group of chicken during the test period for estimation of the drug efficacy and the "rate of relative body weight gain" used for the calculation of ACI were evaluated in accordance with the following equations: […]
______________________________________
Rate (%) of body weight gain = [(mean body weight of
chicken at the end of the test - mean body
weight of the chicken at the beginning of
the test) .div. mean body weight of the chicken
at the beginning of the test] × 100.
Rate (%) of relative body weight gain =
[(rate of body weight gain of the treated group
or an infected but non-treated group) .div. rate
of body weight gain of a non-infected and non-
On the other hand, the term "lesion scores" means a value which is obtained by evaluating, in terms of indexes, the results of visual inspection of lesions on an enucleated cecum sample. The term "oocyst scores" means a value which is obtained by evaluating, in terms of indexes, the number of oocysts actually counted. Details of the procedure for the determination of ACI values are described, for example, in the literature compiled by Kiyoshi Tsunoda, "Chicken Coccidiosis", pp 95-101, Chikusan Shuppan Sha (May, 1983).

## CC[C@@H](C(=O)[C@@H](C)[C@@H](O)[C@H](C)[C@@H]1O[C@@H]([C@@H](CC)C(=O)O)CC[C@@H]1C)[C@H]1O[C@]2(C=C[C@@H](O)[C@]3(CC[C@@](C)([C@H]4CC[C@](O)(CC)[C@H](C)O4)O3)O2)[C@H](C)C[C@@H]1C [Salinomycin, salinomycin]
50 ppm in feed
  Oocyst scores: 10
  Rate (%) of relative body weight gain: 71.13%
  Survival rate (%): 100%
  Lesion scores: 34.0
  ACI (Anticoccidial Index): 127.1

## CC[C@@]1([C@@H]2O[C@@H]([C@H]3O[C@@](O)(CO)[C@H](C)C[C@@H]3C)C[C@@H]2C)CC[C@H]([C@]2(C)CC[C@]3(C[C@H](O)[C@@H](C)[C@@H]([C@@H](C)[C@@H](OC)[C@H](C)C(=O)O)O3)O2)O1 [Monensin]
100 ppm in feed
  Oocyst scores: 20
  Rate (%) of relative body weight gain: 96.13%
  Survival rate (%): 100%
  Lesion scores: 32.0
  ACI (Anticoccidial Index): 144.1

Source: patent US5215981A, “Polyether antibiotic MI215-NF3 substance, production process thereof, and agent for control of chicken coccidiosis” (Hokko Chemical Industry Co., Ltd., priority 1988, dated 1993)
